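Protocol summary: plate cells (96-well), add compound at 5 concentrations, incubate 48 h, interpolate endpoints linearly. At the GI50, growth is halved. TGI: total growth inhibition.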
Experiments:
Experiment in all cases: NCI tumour cell line growth inhibition, 48 h
[1] = system: MOLT-4 leukemia
[2] = system: MCF7 breast
[3] = system: A498 renal
[4] = system: IGROV1 ovarian
[5] = system: MALME-3M melanoma
[6] = system: SK-OV-3 ovarian
[7] = system: SF-539 CNS
[8] = system: TK-10 renal
[9] = system: DU-145 prostate
[10] = system: RXF 393 renal
[11] = system: NCI-H23 lung
[12] = system: SR leukemia
[13] = system: OVCAR-4 ovarian
[14] = system: HT29 colon
[15] = system: SK-MEL-5 melanoma
[16] = system: SW-620 colon
[17] = system: SF-295 CNS
[18] = system: CCRF-CEM leukemia
[19] = system: T-47D breast
[20] = system: HL-60(TB) leukemia
[21] = system: NCI/ADR-RES ovarian
[22] = system: EKVX NSCLC
[23] = system: HOP-62 NSCLC
[24] = system: NCI-H522 lung
[25] = system: OVCAR-3 ovarian
[26] = system: HCC-2998 colon
[27] = system: A549 NSCLC
[28] = system: SNB-75 CNS
[29] = system: K-562 leukemia
[30] = system: COLO 205 colon
[31] = system: ACHN renal
[32] = system: SK-MEL-28 melanoma
[33] = system: SNB-19 CNS
[34] = system: KM12 colon
[35] = system: CAKI-1 renal
[36] = system: HOP-92 NSCLC
[37] = system: RPMI-8226 leukemia
[38] = system: UACC-257 melanoma
[39] = system: UACC-62 melanoma
[40] = system: NCI-H460 lung
[41] = system: SF-268 CNS
[42] = system: U251 CNS
[43] = system: HS 578T breast
[44] = system: SN12C renal
[45] = system: HCT-15 colon
[46] = system: BT-549 breast
[47] = system: SK-MEL-2 melanoma
[48] = system: NCI-H226 lung
[49] = system: UO-31 renal
[50] = system: PC-3 prostate
[51] = system: MDA-MB-435
[52] = system: OVCAR-8 ovarian
[53] = system: HCT-116 colon
[54] = system: MDA-MB-231 breast
[55] = system: OVCAR-5 ovarian
[56] = system: 786-0 renal
[57] = system: LOX IMVI melanoma
[58] = system: M14 melanoma

SMILES: C#CCOc1cccc(-c2nc(N)nc(Nc3ccccc3SSc3ccccc3Nc3nc(N)nc(-c4cccc(OCC#C)c4)n3)n2)c1
- GI50 [1]: 4450 nM
- TGI [1]: > 33300 nM
- GI50 [2]: 17100 nM
- TGI [2]: > 33300 nM
- GI50 [3]: 6580 nM
- TGI [3]: > 33300 nM
- GI50 [4]: 1730 nM
- TGI [4]: 24200 nM
- GI50 [5]: > 33300 nM
- TGI [5]: > 33300 nM
- GI50 [6]: 13600 nM
- TGI [6]: > 33300 nM
- GI50 [7]: 11100 nM
- TGI [7]: > 33300 nM
- GI50 [8]: 13100 nM
- TGI [8]: > 33300 nM
- GI50 [9]: 10600 nM
- TGI [9]: > 33300 nM
- GI50 [10]: 33100 nM
- TGI [10]: > 33300 nM
- GI50 [11]: 1950 nM
- TGI [11]: 10400 nM
- GI50 [12]: 1410 nM
- TGI [12]: > 33300 nM
- GI50 [13]: 12900 nM
- TGI [13]: > 33300 nM
- GI50 [14]: > 33300 nM
- TGI [14]: > 33300 nM
- GI50 [15]: 9940 nM
- TGI [15]: > 33300 nM
- GI50 [16]: 14300 nM
- TGI [16]: > 33300 nM
- GI50 [17]: 751 nM
- TGI [17]: 1930 nM
- GI50 [18]: 2640 nM
- TGI [18]: > 33300 nM
- GI50 [19]: 3290 nM
- TGI [19]: > 33300 nM
- GI50 [20]: 9920 nM
- TGI [20]: > 33300 nM
- GI50 [21]: 1890 nM
- TGI [21]: 8560 nM
- GI50 [22]: 7190 nM
- TGI [22]: > 33300 nM
- GI50 [23]: 674 nM
- TGI [23]: 1580 nM
- GI50 [24]: 8130 nM
- TGI [24]: > 33300 nM
- GI50 [25]: 18200 nM
- TGI [25]: > 33300 nM
- GI50 [26]: > 33300 nM
- TGI [26]: > 33300 nM
- GI50 [27]: 1100 nM
- TGI [27]: 4490 nM
- GI50 [28]: 8990 nM
- TGI [28]: 31300 nM
- GI50 [29]: 8030 nM
- TGI [29]: > 33300 nM
- GI50 [30]: > 33300 nM
- TGI [30]: > 33300 nM
- GI50 [31]: 1190 nM
- TGI [31]: 4350 nM
- GI50 [32]: > 33300 nM
- TGI [32]: > 33300 nM
- GI50 [33]: 7370 nM
- TGI [33]: > 33300 nM
- GI50 [34]: 1690 nM
- TGI [34]: 11100 nM
- GI50 [35]: 3780 nM
- TGI [35]: 14200 nM
- GI50 [36]: 7770 nM
- TGI [36]: > 33300 nM
- GI50 [37]: 1550 nM
- TGI [37]: 17100 nM
- GI50 [38]: 29700 nM
- TGI [38]: > 33300 nM
- GI50 [39]: 5430 nM
- TGI [39]: 13300 nM
- GI50 [40]: 1720 nM
- TGI [40]: 8370 nM
- GI50 [41]: 3940 nM
- TGI [41]: 12100 nM
- GI50 [42]: 1080 nM
- TGI [42]: 3820 nM
- GI50 [43]: 6870 nM
- TGI [43]: 31700 nM
- GI50 [44]: 971 nM
- TGI [44]: 5370 nM
- GI50 [45]: 2310 nM
- TGI [45]: > 33300 nM
- GI50 [46]: 8520 nM
- TGI [46]: > 33300 nM
- GI50 [47]: 16900 nM
- TGI [47]: > 33300 nM
- GI50 [48]: 4520 nM
- TGI [48]: > 33300 nM
- GI50 [49]: 1510 nM
- TGI [49]: 5810 nM
- GI50 [50]: 1610 nM
- TGI [50]: > 33300 nM
- GI50 [51]: 14400 nM
- TGI [51]: > 33300 nM
- GI50 [52]: 2420 nM
- TGI [52]: 12900 nM
- GI50 [53]: 2000 nM
- TGI [53]: > 33300 nM
- GI50 [54]: 4780 nM
- TGI [54]: > 33300 nM
- GI50 [55]: 7320 nM
- TGI [55]: 28200 nM
- GI50 [56]: 21200 nM
- TGI [56]: > 33300 nM
- GI50 [57]: 746 nM
- TGI [57]: 1800 nM

SMILES: COC(=O)[C@H]1[C@@H](O)[C@@]2(O)c3c(OC)cc(OC)cc3O[C@@]2(c2ccc(OC)cc2)[C@@H]1c1ccccc1
- GI50 [1]: 6.22 nM
- TGI [1]: 488 nM
- GI50 [2]: 6.7 nM
- TGI [2]: 231 nM
- GI50 [3]: 10 nM
- TGI [3]: 48.5 nM
- GI50 [4]: 20.7 nM
- TGI [4]: 1340 nM
- GI50 [6]: 11.9 nM
- TGI [6]: 231 nM
- GI50 [7]: 7.9 nM
- TGI [7]: 72 nM
- GI50 [8]: 45.5 nM
- TGI [8]: 166 nM
- GI50 [9]: 17.3 nM
- TGI [9]: 207 nM
- GI50 [10]: 10.5 nM
- TGI [10]: 78.2 nM
- GI50 [11]: 15.5 nM
- TGI [11]: 146 nM
- GI50 [12]: 14.2 nM
- TGI [12]: 16700 nM
- GI50 [13]: 26.6 nM
- TGI [13]: 659 nM
- GI50 [14]: 7.13 nM
- TGI [14]: 93.5 nM
- GI50 [15]: 18.2 nM
- TGI [15]: 81.4 nM
- GI50 [16]: 9.12 nM
- TGI [16]: 2320 nM
- GI50 [17]: 14.1 nM
- TGI [17]: 126 nM
- GI50 [18]: 14.7 nM
- TGI [18]: 5690 nM
- GI50 [19]: 7.22 nM
- TGI [19]: 103 nM
- GI50 [20]: 18.3 nM
- TGI [20]: 108 nM
- GI50 [21]: 19.8 nM
- TGI [21]: 101 nM
- GI50 [22]: 20.6 nM
- TGI [22]: 360 nM
- GI50 [23]: 11.8 nM
- TGI [23]: 101 nM
- GI50 [24]: 17 nM
- TGI [24]: 106 nM
- GI50 [25]: 22.3 nM
- TGI [25]: 304 nM
- GI50 [26]: 8.33 nM
- TGI [26]: 205 nM
- GI50 [27]: 8.57 nM
- TGI [27]: 177 nM
- GI50 [28]: 42.9 nM
- TGI [28]: 1250 nM
- GI50 [29]: 9.61 nM
- TGI [29]: 6820 nM
- GI50 [30]: 15.3 nM
- TGI [30]: 52 nM
- GI50 [31]: 10.2 nM
- TGI [31]: 166 nM
- GI50 [32]: 26.1 nM
- TGI [32]: 277 nM
- GI50 [33]: 16.2 nM
- TGI [33]: 716 nM
- GI50 [34]: < 10.5 nM
- TGI [34]: 757 nM
- GI50 [35]: 28.5 nM
- TGI [35]: 2720 nM
- GI50 [36]: 48 nM
- TGI [36]: 3890 nM
- GI50 [58]: 11.9 nM
- TGI [58]: 52.2 nM
- GI50 [37]: 19.2 nM
- TGI [37]: 339 nM
- GI50 [38]: 44.8 nM
- TGI [38]: 143 nM
- GI50 [39]: 38.3 nM
- TGI [39]: 569 nM
- GI50 [40]: 5.37 nM
- TGI [40]: 653 nM
- GI50 [41]: 25.6 nM
- TGI [41]: 492 nM
- GI50 [42]: 23.8 nM
- TGI [42]: 749 nM
- GI50 [43]: 44.2 nM
- TGI [43]: 1280 nM
- GI50 [44]: 19 nM
- TGI [44]: 214 nM
- GI50 [45]: 10.9 nM
- TGI [45]: 447 nM
- GI50 [46]: 39.9 nM
- TGI [46]: 213 nM
- GI50 [47]: 29.2 nM
- TGI [47]: 89.6 nM
- GI50 [48]: 11.8 nM
- TGI [48]: 260 nM
- GI50 [49]: < 17.2 nM
- TGI [49]: 129 nM
- GI50 [50]: 18.6 nM
- TGI [50]: 6250 nM
- GI50 [51]: 12.1 nM
- TGI [51]: 626 nM
- GI50 [52]: 32.7 nM
- TGI [52]: 408 nM
- GI50 [53]: 10.2 nM
- TGI [53]: 179 nM
- GI50 [54]: 32.8 nM
- TGI [54]: 132 nM
- GI50 [55]: 40.3 nM
- TGI [55]: 1030 nM
- GI50 [56]: 45.1 nM
- TGI [56]: 267 nM
- GI50 [57]: 11.5 nM
- TGI [57]: 75.9 nM
